For one compound, IC50, Activity and inhibition results are on record in ChEMBL document CHEMBL4414661, “Trikoramide A, a Prenylated Cyanobactin from the Marine Cyanobacterium Symploca hydnoides” (J Nat Prod, 2019).

Assay [1] deals with MCF7. Briefly: Cytotoxicity against human MCF7 cells measured after 24 hrs by MTT assay. The class given is functional, cell-based. The note with it: MCF7, 24 h. Background: Tetrazolium assays rely on reduction of a dye to a coloured formazan, in cell work by metabolically active cells.
The subject of assay [2] is Klebsiella pneumoniae. Nature of the assay: Antibacterial activity against Klebsiella pneumoniae assessed as bacterial growth inhibition at 100 uM measured after 16 hrs by microplate reader assay. Format: functional, organism-based.
Assay [3] concerns OCI-AML2. Nature of the assay: Cytotoxicity against human OCI-AML2 cells measured after 24 hrs by MTT assay. Format: functional, cell-based. Particulars: OCI-AML2, 24 h.
Assay [4] deals with Escherichia coli. Nature of the assay: Antibacterial activity against Escherichia coli assessed as bacterial growth inhibition at 100 uM measured after 16 hrs by microplate reader assay. Format: functional, organism-based.
Assay [5] deals with Staphylococcus aureus. Briefly: Antibacterial activity against methicillin-resistant Staphylococcus aureus assessed as bacterial growth inhibition at 100 uM measured after 16 hrs by microplate reader assay. Format: functional, organism-based.
Assay [6] relates to MOLT-4. Nature of the assay: Cytotoxicity against human MOLT4 cells measured after 24 hrs by MTT assay. Format: functional, cell-based. The note with it: MOLT-4, 24 h.
Assay [7] in a line: Inhibition of quorum sensing system in Pseudomonas aeruginosa PAO1 transfected with lasB-GFP at 10 uM by measuring reduction in fluorescence intensity up to 16 hrs by fluorescence assay relative to control.

The source made the active and inactive calls. No cut-off for these calls is given here. Numbered stars: 1 amine (or outer) side, 2 acyl side, 3 side chain; on linkers, the order of the positions; unused ones are H or OH. Square brackets hold non-standard residues; d marks the D form. Peptide text beside a SMILES is read from it. X1 = CC(C)=CC[C@@]12C[C@@H](C(=O)[*:2])N([*:1])[C@@H]1Nc1ccccc12

For `CC(C)=CC[C@@]12C[C@H]3C(=O)N[C@@H](CC(C)C)C(=O)N[C@@H](Cc4ccccc4)C(=O)N4CCC[C@H]4C(=O)N[C@@H](CC(C)C)C(=O)N4CCC[C@H]4C(=O)N[C@@H](CC(C)C)C(=O)N4CCC[C@H]4C(=O)N[C@@H](C(C)C)C(=O)N4CCC[C@H]4C(=O)N3[C@@H]1Nc1ccccc12` (cyclo(FPLPLPVP[X1]L)), the IC50 was determined as 19 µM in assay [1], 8.2 µM in assay [3] and 5.75 µM in assay [6]. Further, the result in assay [2], in assay [4] and in assay [5] was inactive. In assay [7], this compound registered an inhibition of 26%.

What is called IC50 is the concentration at which inhibition is half-maximal. Broadly, the inhibition is the percentage by which the read-out fell short of the control.
